Experimental data taken from ChEMBL document CHEMBL1154580, “Identification and total synthesis of a novel dimethylated fatty acid from the Caribbean sponge Calyx podatypa” (2000).
≈ marks a conversion by molar mass, not a printed value.

System: Streptococcus mutans
Test: Antimicrobial activity against Streptococcus mutans MT509
Format: functional

SMILES | MIC [µg/mL]
CCC(C)CCCCCCCCCCC(=O)O (configuration not stated) | 3.13 (≈ 12.9 µM)
CC(C)CCCCCCCCCCCC(=O)O | 3.13 (≈ 12.9 µM)
